Values quoted from earlier work, collected in US20040209811A1, “Oral prohylactic agent against viral infection” (Chuang-Chun Chiueh, priority 2003, published 2004).

Tests used:
enterovirus = conditions: full prevention of infection; protected cells from viral invasion and pathological changes
cells = conditions: at >0.3 μM concentration

phycocyanin
concentration that could fully prevent enteroviral infection (enterovirus): > 0.3 µM | concentration found to prevent the infection of influenza viruses (influenza viruses): > 0.04 µM | toxicity to cells (cells): non-toxic to cells
